Experimental findings from article PMC12144444, “Cooperative inhibition in cytochrome P450 between a substrate and an apparent noncompetitive inhibitor” (The Journal of Biological Chemistry, 2025) are described below.

This series has as its target CYP105A1 R84A (Streptomyces griseolus, UniProt P18326, R84A). The conditions noted are these: diclofenac 4′-hydroxylation, Lineweaver-Burk and Dixon plots. As to the method: Ethanol concentration in the final reaction solution was 0.8%. […] After each interval, the reaction was stopped by an addition of 50 μl of acetonitrile into each reaction solution. The solution was centrifuged at 10,000 x g for 15 min, and the resultant supernatant was analyzed by ultra performance liquid chromatography (UPLC) under the following conditions: apparatus, H-Class (Waters Co.); column, ACQUITY UPLC BEH C18 (1.7 μm, 2.1 × 100 mm) (Waters Co.); UV detection, 276 nm; column temperature, 40 °C; flow rate, 0.7 ml/min; injection volume, 10 μl; mobile phase, a linear gradient of 25 to 43% acetonitrile in aqueous solution containing 0.1% trifluoroacetic acid (TFA) for 3 min, followed by 43 to 58% acetonitrile in aqueous solution containing 0.1% TFA for 1 min, followed by 58 to 100% acetonitrile in aqueous solution containing 0.1% TFA for 2 min. […] Two separate experiments were performed to obtain the kobs value for 30 μM diclofenac in 5 μM miconazole. Three separate experiments were performed to obtain all other kobs values. Lineweaver-Burk plot and Dixon plot were prepared from the obtained kobs for each reaction.

On to `N#C/C(=C1/SCC(c2ccccc2Cl)S1)n1ccnc1` (centres unmarked) [Lanoconazole], for which the Type of inhibition entry is listed as “noncompetitive inhibition”.
The result for `Clc1ccc(COC(Cn2ccnc2)c2ccc(Cl)cc2Cl)c(Cl)c1` (centres unmarked) [Miconazole] reads “competitive inhibition”.
